{"source": "patent US20060183794A1", "about": "“Drug composition containing nf-kb inhibitor” (priority 2002, published 2006)", "key": {"[1]": {"system": "ATL cell lines (MT-1 and TL-Om1)", "experiment": "MTT assay, proliferation of ATL cell lines", "type": "cell-based, human", "description": "Cells from the ATL cell lines (MT-1 and TL-Om1) and a control cell line (K562) were plated in 96-well plates at 1×10^5 cells/well and DHM2EQ was added at the desired final concentrations (2, 5, and 10 μg/ml). Cells to which the solvent DMSO had been added in equal volume (0 μg/ml) were used as […] incubation for 72 hours, cell viability was judged by the MTT assay. Relative MTT values were obtained as the ratio of the MMT values of DHM2EQ-treated cells to those of DHM2EQ-untreated cells, i.e., (MTT values of DHM2EQ-treated cells/MTT values of DHM2EQ-untreated cells)×100(%).\n(§1) DHM2EQ was added to the ATL cell lines (MT-1 and TL-Om1) and a control cell line (K562) at a final concentration of 10 μg/ml and the cells were incubated for 12, 24, 48, and 72 hours. The proliferation-inhibitory effect was examined by the MTT assay. Cells to which the solvent DMSO had been added in equal volume were used as controls. Relative MTT values were obtained in the same manner as the aforementioned (1)."}, "[2]": {"system": "adhesion of leukocytes and HL-60 cells to HUVECs", "experiment": "Adhesion of leukocytes and HL-60 cells to TNF-α-stimulated HUVECs", "type": "cell-based, human", "settings": "DHMEQ 3 μg/ml; TNF-α stimulation 3, 6, 9 hours", "description": "HUVECs were plated 24 well plates and confluently cultured. The culture medium was composed of 9.8 g/l medium 199 (provided from Nissui), 1.8 g/l NaHCO3 (Wako), 10 ml/l 1M Hepes buffer (Sigma), 30 mg/l ECGS (Becton Dickinson), 6 ml/l heparin sodium injection (Takeda Pharmaceutical), and 10% heat-inactivated FBS (JRH). Subsequently, the following experiments were conducted. […] In this experiment, mononuclear cells isolated by the specific gravity centrifugation method were used as leukocytes.\nAfter stimulation with TNF-α, the wells were washed twice with HBSS+ (provided from Nissui) and the culture medium was changed to 500 μl of a fresh medium composed of 9.8 g/l medium 199 (provided from Nissui), 1.8 g/l NaHCO3 (Wako), 10 ml/l 1M Hepes buffer (Sigma), 30 mg/l ECGS (Becton Dickinson), 6 ml/l heparin sodium injection (Takeda Pharmaceutical), and 10% heat-inactivated FBS (JRH). Leukocytes and HL-60 cells were placed in wells at 2×10^5 cells/well and 7×10^4 cells/well, respectively. […] That state was photographed and the number of cells adhered to HUVECs was counted."}, "[3]": {"system": "human pancreatic cancer cell lines, Panc-1, PK-8, and Colo357", "experiment": "In vitro proliferation of human pancreatic cancer cell lines, DHMEQ with irradiation", "type": "cell-based", "description": "The in vitro suppressive effect of DHMEQ on proliferation of human pancreatic cancer cell lines when DHMEQ and irradiation are used in combination was investigated. The human pancreatic cancer cell lines, Panc-1, PK-8, and Colo357 were plated 10 cm dishes (5×10^5 cells each). After two days, cells were irradiated with either 2.5 Gy or 10 Gy radiation, followed by administration of 10 μg/ml DHMEQ for 4 hours in the combinatin group. The number of cells was measured after 24 hours. Either the point of the completion of irradiation or the point of the start of the drug administration was assumed to be 0 hours."}, "KMH2": {"system": "KMH2", "experiment": "MTT assay, KMH2 cells, DHMEQ combined with antitumor agents", "type": "cell-based", "settings": "DHMEQ 10 μg/ml, 48 hours, with camptothecin, daunomycin or etoposide", "description": "as §1\nThe effects of antitumor agents and the enhancing effect thereon were examined by the MTT assay method as described in Example 5(2).\nIn this example, the cells used were KMH2. The horizontal axes in FIG. 31 indicate the concentrations of each antitumor agent the DHMEQ concentration. The concentrations of each anticancer agent were set at three levels. The examination was performed on DHMEQ alone, the antitumor agent alone, or both in combination, at each level. DHMEQ was used at a concentration of 10 μg/ml and the treatment time was 48 hours. The vertical axis indicates the relative values of the MTT values of treated cells versus untreated cells, i.e., (treated/untreated)×100%."}, "[4]": {"system": "MM cell lines, KMM1, RPMI8226, and U266", "experiment": "Apoptosis of multiple myeloma cell lines (Annexin-V, Hoechst staining)", "type": "cell-based", "description": "Further, to investigate apoptosis induction of MM cell lines by DHMEQ, the MM cell lines, KMM1, RPMI8226, and U266, were incubated for 0, 24, and 48 hours at a concentration of 10 μg/ml and the apoptosis was examined by Annexin-V staining.\nFurther, to confirm apoptosis induction in MM cell lines by DHMEQ, the MM cell lines, KMM1, RPMI8226, and U266, were incubated for 72 hours at a concentration of 10 μg/ml and the apoptosis was examined by observing nuclear condensation or fragmentation with a fluorescence microscope, using Hoechst staining."}, "NF-κB": {"biological_target": "NF-κB (Homo sapiens, UniProt P19838+Q04206)", "sequence (Q04206 whole entry)": "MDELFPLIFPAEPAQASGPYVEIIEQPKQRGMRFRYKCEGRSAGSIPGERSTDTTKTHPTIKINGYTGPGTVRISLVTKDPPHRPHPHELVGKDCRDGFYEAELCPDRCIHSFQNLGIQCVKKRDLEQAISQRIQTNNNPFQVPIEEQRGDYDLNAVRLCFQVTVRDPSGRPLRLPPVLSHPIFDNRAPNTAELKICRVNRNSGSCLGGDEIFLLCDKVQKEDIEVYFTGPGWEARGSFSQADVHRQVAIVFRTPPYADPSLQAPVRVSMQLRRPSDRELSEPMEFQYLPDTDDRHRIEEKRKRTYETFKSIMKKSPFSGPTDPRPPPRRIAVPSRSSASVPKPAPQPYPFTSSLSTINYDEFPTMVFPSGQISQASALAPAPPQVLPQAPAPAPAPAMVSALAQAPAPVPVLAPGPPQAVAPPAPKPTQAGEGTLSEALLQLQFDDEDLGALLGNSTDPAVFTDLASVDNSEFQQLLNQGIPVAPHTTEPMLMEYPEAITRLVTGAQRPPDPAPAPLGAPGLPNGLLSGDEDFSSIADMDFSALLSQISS", "sequence (P19838 1-433 limits assumed)": "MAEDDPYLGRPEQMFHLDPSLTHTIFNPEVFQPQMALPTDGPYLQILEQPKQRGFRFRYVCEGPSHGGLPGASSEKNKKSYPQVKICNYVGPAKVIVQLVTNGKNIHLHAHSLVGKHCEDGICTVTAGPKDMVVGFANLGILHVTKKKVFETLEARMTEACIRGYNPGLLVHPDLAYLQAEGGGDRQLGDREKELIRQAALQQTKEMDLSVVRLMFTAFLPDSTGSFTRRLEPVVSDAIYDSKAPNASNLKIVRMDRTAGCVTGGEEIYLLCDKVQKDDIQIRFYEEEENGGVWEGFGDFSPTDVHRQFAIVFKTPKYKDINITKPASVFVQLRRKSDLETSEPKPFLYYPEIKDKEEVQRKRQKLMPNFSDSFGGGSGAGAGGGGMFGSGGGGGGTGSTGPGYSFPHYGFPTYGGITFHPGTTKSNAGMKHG", "experiment": "Gel shift assay of constitutive NF-κB activation in ATL cell lines", "type": "cell-based", "parameters": "endogenous in cells", "settings": "MT-1 and TL-Om1; 10 μg/ml DHM2EQ, 12 hours", "description": "The ATL cell lines (MT-1 and TL-Om1) and the control cell lines (K562 and Jurkat+TNF), 2×10^6 cells each, were treated with 10 μg/ml DHM2EQ for 12 hours, and nuclear extract was prepared from each cell line. Likewise, nuclear extract was prepared also from the cell lines not treated with DHM2EQ. MT-1 and TL-Om1 are the cell lines transformed with HTLV-1; NF-κB is activated in these cell lines. K562 (myelocytic leukemia cell line) is a cell line in which constitutive NF-κB is not confirmed (a negative control), and Jurkat+TNF is a […] consensus oligomers (Promega) were end-labeled with [γ-^32P]-ATP and polynucleotide kinase (PNK) to prepare ^32P-labeled NF-κB probes.\nThe equivalent of 2 μg of nuclear extract protein was mixed with NF-κB probes (the equivalent of 10,000 cpm) in a volume of 20 μl and reacted at room temperature for 30 min. The solution after the reaction was subjected to 7.5% polyacrylamide gel electrophoresis. The gel was then dried and exposed to an X-ray film."}}}
{"smiles": "O=C(NC1=CC(=O)C2OC2C1O)c1ccccc1O", "note": "(stereo not drawn) [DHMEQ, 5,6-epoxy-4-hydroxy-3-salicyloylamino-2-cyclohexenone]", "values": [{"measurement": "cell proliferation, time course (MTT)", "setting": "[1]; 10 μg/ml, 12, 24, 48, 72 hours", "result": "inhibited in proportion to the DHM2EQ treatment time"}, {"measurement": "cell proliferation, concentration dependence (MTT)", "setting": "[1]; 2, 5, 10 μg/ml, 72 hours", "result": "inhibited in proportion to the DHM2EQ concentrations added"}, {"measurement": "adhesion of leukocytes and HL-60 cells to HUVECs", "setting": "[2]", "result": "markedly suppressed"}, {"measurement": "suppressive effect on proliferation in combination with irradiation", "setting": "[3]; Colo357 and Panc-1, 10 μg/ml 4 hours after irradiation", "result": "synergistic suppressive effect"}, {"measurement": "enhancement of irradiation effect (2.5 Gy to 10 Gy or equivalent)", "setting": "[3]; Colo357 and Panc-1, combination with irradiation", "result": "four-fold"}, {"measurement": "suppressive effect on proliferation, DHMEQ alone", "setting": "[3]; PK-8 and Colo357, 10 μg/ml, 4-hour contact, cell number after 24 hours", "result": "sufficient suppressive effect"}, {"measurement": "radiation dose of equal effect", "setting": "[3]; PK-8 and Colo357, 10 μg/ml, 4 hours", "result": 2.5, "unit": "Gy"}, {"measurement": "effectiveness of DHMEQ alone", "setting": "[3]; Panc-1", "result": "less effective"}, {"measurement": "effect on the action of antitumor agents (MTT)", "setting": "KMH2", "result": "enhances the effect of any antitumor agent used"}, {"measurement": "apoptosis (Annexin-V staining)", "setting": "[4]; 10 μg/ml, 0, 24, 48 hours", "result": "apoptosis had been induced"}, {"measurement": "apoptosis (Hoechst staining, nuclear fragmentation)", "setting": "[4]; 10 μg/ml, 72 hours", "result": "images of nuclear fragmentation by DHMEQ treatment were observed"}, {"measurement": "signal of NF-κB (gel shift)", "setting": "NF-κB", "result": "almost lost"}]}
